In patent publication US20250223561A1, “PHARMACEUTICAL COMPOSITION CONTAINING miR-140 AND METHOD FOR PRODUCING SAME” (HIROKO SCIENCE INC., priority 2022, published 2025):
Where “and” joins values, the source holds several entries; their conditions need not be identical. Equal entries are not always repeated.

Legend:
[1] = system: immortalized chondrocytes; assay: Total RNA extracted from exosomal fractions of immortalized chondrocytes treated with exosome release enhancers (Nano Drop); type: cell-based, human; conditions: for Nucleic Acid conc.: RNA from exosomal fraction of culture supernatant, cells cultured with 10 nM estradiol, enhancer added on day four (10 uM monensin, 20 nM aplimod, 10 uM D609), Nano Drop, dilution ratio 1; for Amount of RNAs: same samples, liquid volume 15 ul
Description: (§1) The fifth passage of immortalized chondrocytes was passaged and seeded in four flasks with a volume of 75 cm^2 at a concentration of 1.5×10^6 cells per flask. Culturing was started after adding 10 nM of estradiol to three of them and without adding it to one of them. […] The medium was collected from each flask the following day and then centrifuged at 1,500 rpm for 5 min. The supernatants were further filtered through a filter with a pore size of 0.22 um and stored as exosomal fractions at −80° C. until an analysis of miR.
MicroRNAs were extracted from the exosomal fractions in Example 2 using an exoRNAeasy Serum/Plasma Maxi Kit (Qiagen). The A260/A280 and A260/A230 ratios of the extracted RNAs were measured using a spectrophotometer Nano Drop One (Thermo Fisher Scientific), showing that the samples were free of protein and salt impurities. Electrophoresis of the samples was further conducted using Agilent 2100 Bioanalyzer (Aligent Technologies), confirming that only the target nucleic acids were contained.

miR-140 = assay: Expression of miR-140 in exosomal fractions by real-time PCR; type: cell-based, human; conditions: for Cp value: Hs miR-140_1 primer assay (miR-140-5p), single replicates n1, n2, low Cp value means a large amount of miR-140; for Cp value Average: Hs miR-140_1 primer assay, average of n1 and n2
Description: as §1
cDNA synthesis was conducted with the extracted RNAs using miScript II RT Kit (catalog No. 218160, Qiagen) under the following conditions.
Real-time PCR reactions were conducted on a real-time PCR system (LightCycler 480, Roche) under the following conditions using miScript SYBR Green PCR Kit (catalog No. 218073, Qiagen) with the cDNAs synthesized as described above. The primer for the miR-140 measurement was Hs_miR-140_1 miScript Primer Assay (catalog No. MS00003500, has-miR-140-5p: MIMAT0000431).

SMILES | Nucleic Acid conc. [1] | Amount of RNAs [1] | Cp value (miR-140; listed as 3-Apl) | Cp value Average (miR-140) | Cp value (miR-140; listed as 4-D) | amount of nucleic acid collected (comparison among treatments) ([1]; compared with control, aplimod and D609 samples) | miR-140 content compared with the other groups (miR-140; from real-time PCR Cp values)
Cc1cccc(/C=N/Nc2cc(N3CCOCC3)nc(OCCc3ccccn3)n2)c1 [Apl, aplimod] | 179.7 ng/µL | 2695.9 ng | 36.78 and 36.76 | 36.77 |  |  | 
S=C(S)OC1CC2CC1C1CCCC21 (stereo not drawn) [D, D609] | 206.3 ng/µL | 3094.4 ng |  | 36.87 | 36.84 and 36.89 |  | 
CC[C@@]1([C@@H]2O[C@@H]([C@H]3O[C@@](O)(CO)[C@H](C)C[C@@H]3C)C[C@@H]2C)CC[C@H]([C@]2(C)CC[C@]3(C[C@H](O)[C@@H](C)[C@@H]([C@@H](C)[C@@H](OC)[C@H](C)C(=O)O)O3)O2)O1 [Mo, monensin] | 290.5 ng/µL | 4357.6 ng |  |  |  | highest | nearly twice as much miR-140 as the others
